Like-named read-outs stand apart in the source and are kept apart here. Non-standard residues stand in square brackets, D forms with d. No end group written: not given here. *: point of attachment. Biotin = O=C1N[C@H]2[C@H](CS[C@H]2CCCCC(=O)*)N1; Dap = NC[C@H](N)C(=O)O; Ahx = NCCCCCC(=O)O
What was measured:
GOAT = settings: ref [33], cited from earlier work; for Km: read-out: published Km, published values
mouse GOAT [1] = target: T1, mouse GOAT (Mus musculus, UniProt P0C7A3); assay: Microsomal ghrelin octanoyltransferase assay; settings: for Km: read-out: Km (apparent) for octanoyl-CoA; for Km / Vmax (apparent) for octanoyl-CoA / Vmax (apparent): 50 μM palmitoyl-CoA, 1 min at 30°C; for Km / Vmax (apparent) for octanoyl-CoA: 25 μg microsome protein; for Vmax (apparent): ghrelin substrate varied, 25 μg microsome protein (2 ng GOAT); for Vmax (apparent) / maximum reaction rate, fold lower than for the natural Ser analogs: 1 μM octanoyl-CoA; for maximum reaction rate, fold lower than for the natural Ser analogs: relative to the Ser3 analog
T1 sequence (P0C7A3 1-435): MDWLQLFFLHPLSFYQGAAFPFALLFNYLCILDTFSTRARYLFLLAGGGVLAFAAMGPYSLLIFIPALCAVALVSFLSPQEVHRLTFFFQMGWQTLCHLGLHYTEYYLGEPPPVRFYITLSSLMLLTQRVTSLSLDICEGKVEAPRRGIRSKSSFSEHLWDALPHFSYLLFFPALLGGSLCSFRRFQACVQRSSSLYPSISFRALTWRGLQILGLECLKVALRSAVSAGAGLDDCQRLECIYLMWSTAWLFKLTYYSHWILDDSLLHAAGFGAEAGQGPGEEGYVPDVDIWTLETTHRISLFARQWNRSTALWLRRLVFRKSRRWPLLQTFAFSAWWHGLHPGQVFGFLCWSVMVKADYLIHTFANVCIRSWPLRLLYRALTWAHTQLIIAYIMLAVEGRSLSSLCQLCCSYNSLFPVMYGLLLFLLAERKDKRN

mouse GOAT [2] = target: T1, mouse GOAT; assay: Ghrelin octanoyltransferase assays at varying pH; assay type: biochemical; settings: 7.5 μM and 100 μM substrate, 1 min, Bis-Tris propane pH 6–9
[3] = cited from earlier work

## CCCCCCCC(=O)SCCNC(=O)CCNC(=O)[C@H](O)C(C)(C)COP(=O)(O)OP(=O)(O)OC[C@H]1O[C@@H](n2cnc3c(N)ncnc32)[C@H](O)[C@@H]1OP(=O)(O)O [Octanoyl-CoA, reference compound]
GOAT
  Km: 0.6 µM
GOAT; with 50 μM palmitoyl-CoA, under the conditions of the assay
  microsomal octanoyl-CoA hydrolysis: < 25%
Mouse GOAT [1]; vs 10 μM Ghrelin27
  Km: 0.44 ± 0.04 µM
  Vmax (apparent) for octanoyl-CoA: 250 ± 8 nmol/min/mg
Mouse GOAT [1]; vs 80 μM Ghrelin10
  Km: 0.81 ± 0.04 µM
  Vmax (apparent) for octanoyl-CoA: 190 ± 4 nmol/min/mg

## GS(Dap)FLSPEHQ(Ahx)K(Biotin)G [Dap3-Ghrelin10]
Mouse GOAT [2]
  variation of octanoylation rate across pH 6–9: ≤ 2 fold
Mouse GOAT [1]
  Vmax (apparent): 74 ± 8 nmol/min/mg
  maximum reaction rate, fold lower than for the natural Ser analogs: approximately 2 fold

## GSSFLSPEHQ[Ahx]K(Biotin)G [Ghrelin10]
Mouse GOAT [2]
  variation of octanoylation rate across pH 6–9: ≤ 2 fold
Mouse GOAT [1]
  Vmax (apparent): 160 ± 10 nmol/min/mg
Mouse GOAT [1]; relative to Ghrelin27
  fold higher apparent Km than Ghrelin27: ~ 10 fold

## GS[Dap]FLSPEHQRVQQRKESKKPPAKLQPK(Biotin)G [Dap3-Ghrelin27]
Mouse GOAT [1]
  Vmax (apparent): 85 ± 5 nmol/min/mg
  maximum reaction rate, fold lower than for the natural Ser analogs: approximately 2 fold

## GSSFLSPEHQRVQQRKESKKPPAKLQPK (Biotin)G (GSSFLSPEHQRVQQRKESKKPPAKLQPK-{Gly(Biotin)}; not fully specified) [Ghrelin27]
Mouse GOAT [1]
  Vmax (apparent): 230 ± 10 nmol/min/mg
Mouse GOAT [1]; relative to Ghrelin10
  fold lower apparent Km relative to Ghrelin10: 10 fold

## NCC(N)C(=O)O (stereo not shown) [amino-Ala, 2,3-diaminoproprionic acid]
[3]; peptide-incorporated residue, ref [36]
  sidechain pKa (RNH3+ to RNH2): ~ 8

## N[C@@H](CO)C(=O)O [Ser]
[3]; ref [37]
  sidechain pKa (ROH to RO-): ~ 13

B1: proghrelin-His8: proghrelin with His8 tag; proghrelin is likely the natural substrate for GOAT (protein, UniProt Q9UBU3 24-117, looked up)
pro-form: GSSFLSPEHQRVQQRKESKKPPAKLQPRALAGWLRPEDGGQAEGAEDELEVRFNAPFDVGIKLSGVQYQQHSQALGKFLQDILWEEAKEAPADK
modifications: pro-form His8 tag
GOAT
  Km: 6 µM

Reference: PMC4567917 (Bioorganic chemistry, 2015)
